Data on five compounds can be found in patent US20240174622A1, “COMPOUND AND RADIOACTIVE LABELING COMPOUND” (NIHON MEDI-PHYSICS CO., LTD., priority 2021, published 2024).

The test system of one data set is LNCaP tumor. Put plainly: SPECT/CT using LNCaP tumor-transplanted mouse. The data set is classed as in vivo. The protocol:
(§1) LNCaP tumor-implanted mice prepared by the method described above were administered saline solutions (1.9 to 3.0 MBq, 150 μL) of [^111In]In-PSMA-DA1 or [^111In]In-PSMA-DB from the tail vein. SPECT/CT was performed 24 and 48 hours after administration with FX3300 pre-clinical imaging system, which is manufactured by Gamma Medica-Ideas. Imaging was performed using a pinhole collimator with a diameter of 1.0 mm at a rotation radius of 35 mm, a projection time of 70 seconds, and the number of projections of 32 times under isoflurane anesthesia. After SPECT, CT (Tube voltage: 60 kV, Tube current: 350 μA) was performed. Image reconstruction was performed on the projection data of SPECT through three-dimensional ordered subset expectation maximization method (8 subsets, 5 iterations).
In the figure, the part indicated by the arrow is the location of the tumor, and the part indicated by the circle is the location of the kidney. The higher the SUV, the higher the radioactivity accumulation. […]
as §1, with “SPECT/CT” for “LNCaP tumor-implanted mice prepared by the method described above were administered saline solutions (1.9 to 3.0 MBq, 150 μL) of [^111In]In-PSMA-DA1 or [^111In]In-PSMA-DB from the tail vein. SPECT/CT”, “24, 48,” for “24”, “96” for “48”

Data set [1] has as its target T1, plasma albumin (mouse plasma) (Mus musculus, UniProt P07724).
T1 construct: from tissue; host or cells: mouse plasma
Put plainly: Evaluation of binding to albumin (mouse plasma). Particulars: for radioactivity in the eluate (in words): left to stand in mouse plasma. The method, then: A PBS solution (37 kBq, 50 μL) of [^111In]In-PSMA-DA1 or [^111In]In-PSMA-DB was added to 200 μL of PBS, mouse plasma, human plasma, or a human serum albumin (HSA) solution (45 mg/mL) in PBS, respectively, and the mixtures were allowed to stand at 37° C. for 10 minutes. Thereafter, the reaction liquids were added to a spin column ([…]; manufactured by Cytiva), and centrifuged at 1500×g at 4° C. for 2 minutes. After separation, the radioactivity for each of the column and the eluate was measured with a gamma counter.
When a compound to be evaluated binds to albumin to form a composite, the compound passes through the column because of the increased molecular size.
As in Example 1-1 described above, PBS, mouse plasma, human plasma, and human albumin were used to evaluate binding to albumin. Evaluation was carried out by the same experimental procedure and statistical method as in Example 1-1, except that a PBS solution (37 kBq, 50 μL) of [^111In]In-PtDA was used.
Thereafter, the reaction liquid was added to a spin column (Sephadex G-50; manufactured by Cytiva), and centrifuged at 1500×g at 4° C. for 2 minutes. After separation, the radioactivity of the column and the eluate was measured with a gamma counter.

The test system of data set [2] is PC-3 tumor-transplanted mouse. Put plainly: Internal radioactivity distribution using PC-3 tumor-transplanted mouse. The data set is classed as in vivo. Particulars: for Blood / Brain / Heart / Intestine / Kidney / Liver / Lung / Muscle / PC-3 Tumor / Pancreas / Spleen / Stomach (% ID): PC-3 tumor-transplanted mice; for accumulation at the PC-3 tumor compared with the LNCaP tumor at the same time point (in words): mouse, in vivo. The protocol: (§2) The animal test was performed in compliance with the guidelines of Kyoto University Animal Experiment Committee. Male CB17/IcrJcl-Prkdc^scid mice were purchased from CLEA Japan, Inc. The animals were kept under 12 h/12 h, day/night cycle conditions and fed ad libitum with food and water. LNCaP cells (1.0×10^7 cells/mouse) or PC-3 cells (1.0×10^7 cells/mouse) were suspended in a mixture of PBS and Matrigel manufactured by Corning Life Sciences (1:1, 150 μL) and the suspension was subcutaneously transplanted to the right shoulder of mice under isoflurane anesthesia. Thereafter, the mice were kept for 40 to 60 days.
LNCaP or PC-3 tumor-implanted mice were administered saline solutions (185 kBq, 100 μL) of [^111In]In-PSMA-DA1 or [^111In]In-PSMA-DB from the tail vein (n=3 each). Mice were euthanized 1, 4, 24, 48, 96, and 192 hours after administration. Thereafter, blood and each organ were recovered, and the mass and radioactivity of the organs were measured.
The percentage (% ID) of the radioactivity amount to the administered radioactivity amount (injected dose) is shown as the value (% ID/g) divided by the blood mass or the organ mass (g).
as §2, with “LNCaP cells (4.3×10^6 cells/mouse) or” for “LNCaP cells (1.0×10^7 cells/mouse) or”, “PC-3 cells (3.3×10^6 cells/mouse) were” for “PC-3 cells (1.0×10^7 cells/mouse) were”, “shoulder of CB17/IcrJcl-Prkdc^scid mice under” for “shoulder of mice under”
Mice were euthanized 1, 4, 24, 48, 96, and 192 hours after administration. Thereafter, blood and each organ were recovered, and the mass and radioactivity of the organs were measured.
The results are shown in Table 13 (Mean value±standard deviation, n=3).

[3] abbreviates: 24 (and 48) hours after administration.

T1 sequence (P07724 25-608): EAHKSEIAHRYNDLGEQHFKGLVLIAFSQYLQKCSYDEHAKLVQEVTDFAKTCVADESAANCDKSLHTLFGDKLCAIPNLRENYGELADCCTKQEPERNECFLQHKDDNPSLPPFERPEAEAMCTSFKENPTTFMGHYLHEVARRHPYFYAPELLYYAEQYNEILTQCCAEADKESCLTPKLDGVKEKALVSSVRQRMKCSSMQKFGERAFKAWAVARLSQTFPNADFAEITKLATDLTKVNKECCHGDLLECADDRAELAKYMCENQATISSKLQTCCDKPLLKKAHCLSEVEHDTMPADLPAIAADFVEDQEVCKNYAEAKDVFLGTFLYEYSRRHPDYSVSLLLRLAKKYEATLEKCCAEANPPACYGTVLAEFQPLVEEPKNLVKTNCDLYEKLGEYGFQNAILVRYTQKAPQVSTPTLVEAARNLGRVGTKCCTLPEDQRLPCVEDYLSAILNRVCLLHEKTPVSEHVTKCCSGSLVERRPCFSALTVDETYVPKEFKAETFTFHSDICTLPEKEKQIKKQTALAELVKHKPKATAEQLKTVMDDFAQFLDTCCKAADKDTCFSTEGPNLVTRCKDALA

For the compound `O=C([O-])CN(Cc1cccc(C(=O)[O-])n1)C[C@H](Cc1ccc(NC(=O)[C@H](CCCCNC(=O)CCC(=O)NCCCC[C@H](NC(=O)N[C@@H](CCC(=O)O)C(=O)O)C(=O)O)NC(=O)CCCc2ccc(I)cc2)cc1)N(CC(=O)[O-])Cc1cccc(C(=O)[O-])n1.[111In+3]` [[^111In]In-Octapa-2], in the data set on LNCaP tumor (setting [3]), the “radioactivity accumulation at the LNCaP tumor in SPECT/CT” value is given as “high radioactivity accumulation” and the “radioactivity accumulation at the kidney in SPECT/CT” value was “also observed”.
On to `O=C([O-])CN1CCN(C(CCC(=O)NCCCC[C@H](NC(=O)N[C@@H](CCC(=O)O)C(=O)O)C(=O)O)C(=O)[O-])CCN(CC(=O)[O-])CCN(C(CCC(=O)N[C@@H](CCCCNC(=O)CCCc2ccc(I)cc2)C(=O)O)C(=O)[O-])CC1.[111In+3]` (stereo partly drawn) [[^111In]In-PSMA-DA1], for which the “radioactivity in the eluate (in words)” value in data set [1] is “significantly higher”. Moreover, in data set [2] (24 h after administration), the Blood came out at 5.73 ± 0.67 % ID/g, the Brain worked out at 0.17 ± 0.04 % ID/g, the Heart is listed as 1.90 ± 0.22 % ID/g and the Intestine is listed as 1.37 ± 0.22 % ID/g. Further, in data set [2] (24 h after administration), the Kidney is 9.56 ± 1.55 % ID/g, the Liver is given as 1.60 ± 0.12 % ID/g, the Lung stood at 4.74 ± 0.67 % ID/g and the Muscle is 0.59 ± 0.02 % ID/g. Moreover, in data set [2] (24 h after administration), the “PC-3 Tumor” value stood at 2.69 ± 0.30 % ID/g, the Pancreas is listed as 1.37 ± 0.04 % ID/g, the Spleen worked out at 2.52 ± 0.12 % ID/g and the “Stomach (% ID)” value was determined as 0.27 ± 0.08 % ID. The “accumulation at the PC-3 tumor compared with the LNCaP tumor at the same time point (in words)” value in data set [2] is reported as “less accumulated”. Moreover, in the data set with LNCaP tumor (setting [3]), the “radioactivity accumulation at the LNCaP tumor in SPECT/CT” value was “significant radioactivity accumulation” and the “radioactivity accumulation at the kidney in SPECT/CT” value is on record as “High radioactivity accumulation”.
As to `O=C([O-])CN1CCN(C(CCC(=O)NCCCC[C@H](NC(=O)N[C@@H](CCC(=O)O)C(=O)O)C(=O)O)C(=O)[O-])CCN(CC(=O)[O-])CCN(C(CCC(=O)Nc2ccccc2)C(=O)[O-])CC1.[111In+3]` (stereo partly drawn) [[^111In]In-PSMA-DB, reference compound], in data set [2] (1 h after administration), the Blood worked out at 1.92 ± 0.27 % ID/g, the Brain came to 0.06 ± 0.00 % ID/g, the Heart was 0.49 ± 0.05 % ID/g and the Intestine was found to be 0.48 ± 0.04 % ID/g. In data set [2] (1 h after administration), the Kidney turned out to be 49.5 ± 12.6 % ID/g, the Liver came out at 0.62 ± 0.03 % ID/g, the Lung worked out at 1.36 ± 0.23 % ID/g and the Muscle amounted to 0.21 ± 0.08 % ID/g. Further, in data set [2] (1 h after administration), the “PC-3 Tumor” value is given as 0.61 ± 0.06 % ID/g, the Pancreas is 0.44 ± 0.06 % ID/g, the Spleen is on record as 2.57 ± 0.39 % ID/g and the “Stomach (% ID)” value was determined as 0.12 ± 0.04 % ID. Also, the “accumulation at the PC-3 tumor compared with the LNCaP tumor at the same time point (in words)” value in data set [2] was “less accumulated”. Moreover, in the data set on LNCaP tumor (setting [3]), the “radioactivity accumulation at the LNCaP tumor in SPECT/CT” value is “lower than at the kidney”.
For the compound `O=C(O)CC[C@H](NC(=O)N[C@@H](CCCCNC(=O)[C@H](Cc1ccc2ccccc2c1)NC(=O)[C@H]1CC[C@H](CNC(=O)CCC(C(=O)O)N2CCN(CC(=O)O)CCN(C(CCC(=O)N[C@@H](CCCCNC(=O)CCCc3ccc(I)cc3)C(=O)O)C(=O)O)CCN(CC(=O)O)CC2)CC1)C(=O)O)C(=O)O` (stereo partly drawn) [[^111In]In-PSMA-NAT-DA1, metal not drawn], the “radioactivity in the eluate (in words)” value in data set [1] is reported as “significantly high”. Moreover, in data set [2] (24 h after administration), the Blood was determined as 5.73 ± 1.10 % ID/g, the Brain was found to be 0.22 ± 0.03 % ID/g, the Heart is listed as 2.67 ± 0.58 % ID/g and the Intestine is 0.68 ± 0.07 % ID/g. In data set [2] (24 h after administration), the Kidney is on record as 27.9 ± 6.05 % ID/g, the Liver came to 1.74 ± 0.37 % ID/g, the Lung is listed as 7.41 ± 1.13 % ID/g and the Muscle worked out at 0.83 ± 0.26 % ID/g. Besides, in data set [2] (24 h after administration), the “PC-3 Tumor” value was 3.21 ± 1.00 % ID/g, the Pancreas is 1.25 ± 0.04 % ID/g, the Spleen came to 6.94 ± 4.55 % ID/g and the “Stomach (% ID)” value was 0.15 ± 0.03 % ID. For the same compound, the “accumulation at the PC-3 tumor compared with the LNCaP tumor at the same time point (in words)” value in data set [2] is “significantly lower”. Further, in the data set on LNCaP tumor (setting [3]), the “radioactivity accumulation at the LNCaP tumor in SPECT/CT” value is “significant radioactivity accumulation” and the “radioactivity accumulation at the kidney in SPECT/CT” value is “also observed”. Besides, the “radioactivity accumulation at the kidney in SPECT/CT” value with LNCaP tumor (96 hours after administration) is reported as “hardly observed”.
In the case of `O=C([O-])CN1CCN(C(CCC(=O)NCCC(=O)N2Cc3ccccc3-c3c(nnn3CCOCCOCCOCCOCCC(=O)NCCCC[C@H](NC(=O)N[C@@H](CCC(=O)O)C(=O)O)C(=O)O)-c3ccccc32)C(=O)[O-])CCN(CC(=O)[O-])CCN(C(CCC(=O)N[C@@H](CCCCNC(=O)CCCc2ccc(I)cc2)C(=O)O)C(=O)[O-])CC1.[111In+3]` (stereo partly drawn) [[^111In]In-PtDA], the “radioactivity in the eluate” value in data set [1] (mouse plasma) came to 67.2%. For the same compound, the “radioactivity accumulation at the LNCaP tumor in SPECT/CT” value in the data set with LNCaP tumor (setting [3]) was “high radioactivity accumulation”.
